Measurements: patent US11142505B2, “Compositions for APP-selective BACE inhibition and uses therefor” (The Regents of the University of California, priority 2015, dated 2021)
pIC50: −log10 of the molar value. Where “and” joins values, the source holds several entries; their conditions need not be identical. Identical values can stand only once. Counter-ions that a name gives are not always drawn. Like-named read-outs stand apart in the source and are kept apart here.

Key:
[1] = test system: CHO-7W cells that were stably transfected with human APP (wildtype); assay: Secondary cell-based test of APP processing (sAPPalpha, sAPPbeta, Abeta 1-42); settings: for Aβ1-42 peptide formation, in words: FIG. 1C, FIG. 5B; for sAPP (α/β) / sAPPalpha / sAPPbeta / sAPPα/Aβ / Abeta 1-42: Secondary (1st test, n = 3); for sAPP (α/β) / sAPPα/Aβ: ratio; for sAPPbeta / Abeta 1-42: ↓ decrease
Source text: Cellular Assays: Numerous cell-based assays can be used to evaluate the activity of agent(s) of interest on relative alpha-secretase activity to beta-secretase activity and/or processing of APP to release amyloidogenic versus non-amyloidogenic oligomers.
Relative activity of the alpha-secretase to the beta-secretase can be measured by analysis of one or more cleavage products of the APP substrate. For example, inhibition of beta-secretase activity against the substrate APP would be expected to decrease release of specific beta-secretase induced APP cleavage products such as Aβ (e.g., Aβ40 or Aβ42), sAPPβ and APPneo. Promotion or enhancement of alpha-secretase activity against the substrate APP would be expected to increase release of specific alpha-secretase induced APP cleavage products such as sAPPα and p3 peptide.
In such assays, for example, the cells expressing APP, alpha-secretase and/or beta-secretase are incubated in a culture medium under conditions suitable for alpha-secretase and/or beta-secretase enzymatic activity at its cleavage site on the APP substrate. On exposure of the cells to the agent(s), the amount of Aβ released into the medium and/or the amount of CTF99 fragments of APP in the cell lysates is reduced as compared with the control. The cleavage products of APP can be analyzed, for example, by immune reactions with specific antibodies, as discussed above.

[2] = pharmacokinetics, plasma and brain levels; format: in vivo
Source text: As is readily apparent, not all compounds were equally able to cross the blood brain barrier, but most compounds did reach pharmacologically meaningful levels given their low IC50 values. FIG. 5A provides a further exemplary compound (FAH65) and FIG. 5B depicts dose response data for Aβ1-42 production in a cell based system.. Further shown are effects observed with regard to Aβ1-42 production, sAPPβ and sAPPα formation. […] Here, data are presented for oral and subcutaneous administration (SQ) at dosages of 10- and 30 mg/kg. […] Once more, it should be noted that these exemplary compounds are preferential towards APP in BACE inhibition as can be taken from the data for Aβ1-42, sAPPβ, and sAPPα formation.

solubility (Sol) = format: physicochemical; settings: Table 3
BACE1 = BACE1 (Homo sapiens (Human), UniProt P56817); assay: in vitro BACE inhibition assay (Primary BACE1 IC50); format: biochemical; settings: for BACE activity / IC50 in the BACE assay, in words: FIG. 1B, FIG. 2B
Sequence of BACE1 (P56817 46-501): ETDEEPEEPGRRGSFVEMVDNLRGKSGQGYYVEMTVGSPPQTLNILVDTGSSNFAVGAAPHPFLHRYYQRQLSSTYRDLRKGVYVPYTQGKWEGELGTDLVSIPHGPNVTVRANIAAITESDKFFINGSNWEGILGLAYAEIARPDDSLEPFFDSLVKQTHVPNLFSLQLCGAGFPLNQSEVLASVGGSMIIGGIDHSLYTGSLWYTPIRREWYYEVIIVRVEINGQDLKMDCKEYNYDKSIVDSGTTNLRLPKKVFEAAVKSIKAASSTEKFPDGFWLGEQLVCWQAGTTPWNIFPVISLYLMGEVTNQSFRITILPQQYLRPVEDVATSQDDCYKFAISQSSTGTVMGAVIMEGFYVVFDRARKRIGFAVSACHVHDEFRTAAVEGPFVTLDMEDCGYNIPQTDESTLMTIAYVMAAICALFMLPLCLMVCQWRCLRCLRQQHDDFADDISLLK
Source text: ABBI Assay: APP Binding BACE Inhibitor (ABBI) activity of any of the compounds described herein can readily be verified using, for example, assays described herein. […] In one illustrative embodiment, an MBP-C125 APP695 wt fusion protein can be used as one of the substrates and the second substrate can be the commercially available P5-P5′ fluorescence substrate.

[3] = Table 4, several values in a cell are repeat determinations, read-out: BACE1 IC50
[4] = one cell spans the readout columns

SMILES | sAPP (α/β) ([1]; ↑ increase) | sAPPalpha ([1]; ↑ increase) | sAPPbeta [1] | sAPPα/Aβ ([1]; ↑ increase) | Abeta 1-42 [1] | further results
Cc1cc(C2(c3cccc(-c4cncnc4)c3)N=C(N)N(C)C2=O)ccc1OC(F)F (racemic) [FAH-65] | – | – | – | – | – | Aβ1-42 peptide formation, in words [1]: strongly reduces Aβ1-42 production; preference towards APP in BACE inhibition, in words ([1]; from Aβ1-42, sAPPβ and sAPPα formation): clear preference towards APP in BACE inhibition; brain levels / crossing the blood brain barrier, in words ([2]; FIG. 4, FIG. 5C (oral and SQ, 10 and 30 mg/kg)): pharmaceutically meaningful concentrations can be achieved in the brain
Cc1cc(C2(c3cnn(C)c3)N=C(N)N(C)C2=O)ccc1OC(F)F (stereo not drawn) [30 HCl] | ↑≈40% | ↑>10% | ↓>20% | – | – | –
Cc1cc(C2(c3cc(F)cc(F)c3)N=C(N)N(C)C2=O)ccc1OC(F)F (stereo not drawn) [FAH-03] | ↑≈50% | ↑>10% | ↓>20% | ↑>50% | ↓>20% | –
Cc1cc(C2(c3cccc(F)c3)N=C(N)N(C)C2=O)ccc1OC(F)F (stereo not drawn) [FAH-17] | ↑>100% | ↑>20% | ↓>30% | ↑>100% | ↓>30% | Cmax brain [2]: ~0.3 µM; Sol (solubility (Sol)): Med
Cc1cc(F)cc(C2(c3ccc(OC(F)F)c(C)c3)N=C(N)N(C)C2=O)c1 (stereo not drawn) [FAH-22] | ↑≈50% | ↑>10% | ↓>20% | ↑>100% | ↓>25% | pIC50 (BACE1; [3]): 6.15
Cc1cc(C2(c3cccc(Cl)c3)N=C(N)N(C)C2=O)ccc1OC(F)F (stereo not drawn) [FAH-23] | ↑>50% | ↑>20% | ↓>20% | ↑>100% | ↓>25% | –
Cc1cc(C2(c3cc(F)cc(Cl)c3)N=C(N)N(C)C2=O)ccc1OC(F)F (stereo not drawn) [FAH-25] | ↑≈50% | ↑>10% | ↓>20% | ↑>40% | ↓>20% | –
Cc1cccc(C2(c3ccc(OC(F)F)c(C)c3)N=C(N)N(C)C2=O)c1 (stereo not drawn) [FAH-27] | ↑>100% | ↑>30% | ↓>30% | ↑>100% | ↓>40% | –
Cc1cc(C2(c3cccc(C(F)(F)F)c3)N=C(N)N(C)C2=O)ccc1OC(F)F (stereo not drawn) [FAH-28] | ↑>50% | ↑>20% | ↓>20% | ↑>40% | ↓>20% | –
Cc1cc(C2(c3cccc(-c4cccnc4)c3)N=C(N)N(C)C2=O)ccc1OC(F)F (stereo not drawn) [FAH-32] | ↑>100% | ↑>20% | ↓>30% | ↑>100% | ↓>60% | Aβ1-42 peptide formation, in words [1]: substantially reduced; sAPPα formation, in words ([1]; FIG. 1D, compared to FAH17): increased sAPPα formation as compared to FAH17; sAPPβ formation, in words ([1]; FIG. 1D, compared to FAH17): reduced as compared to FAH17; Cmax brain [2]: <0.02 µM; Sol (solubility (Sol)): Med; BACE activity / IC50 in the BACE assay, in words (BACE1): significantly reduced IC50
Cc1cc(C2(c3cncnc3)N=C(N)N(C)C2=O)ccc1OC(F)F (stereo not drawn) [FAH-33] | ↑≈10% | ↑>10% | Unchanged | ↑>20% | ↓≈10% | –
Cc1cc(C2(c3cncc(F)c3)N=C(N)N(C)C2=O)ccc1OC(F)F (stereo not drawn) [FAH-37] | ↑>50% | ↑>10% | ↓>20% | – | ↓≈20% | sAPPα/Aβ ([1]; ↓ (decrease)): ↓>40%; Cmax brain [2]: ~0.11 uM μM; Sol (solubility (Sol)): Good; BACE activity / IC50 in the BACE assay, in words (BACE1): less effective in reducing BACE activity in vitro; pIC50 (BACE1; [3]): 5.71 and 5.55 and 5.33; pIC50 (BACE1; Tables 1 and 2, read-out: Primary BACE1 IC50): 6.82
Cc1cc(C2(c3cocn3)N=C(N)N(C)C2=O)ccc1OC(F)F (stereo not drawn) [FAH-38] | – | – | – | – | – | Secondary (1st test) result across all readouts [1, 4]: unchanged
Cc1cc(C2(c3cccc(F)c3)N=C(N)N(Cc3ccccc3)C2=O)ccc1OC(F)F (stereo not drawn) [FAH-42] | ↑>50% | ↑>10% | ↓>30% | unchanged | ↓≈10% | –
COCc1cccc(C2(c3ccc(OC(F)F)c(C)c3)N=C(N)N(C)C2=O)c1 (stereo not drawn) [FAH-44] | ↑>100% | ↑>10% | ↓>30% | – | ↓>30% | sAPPα/Aβ ([1]; ↓ (decrease)): ↓>100%; Cmax brain [2]: ~0.2 µM; Sol (solubility (Sol)): Excellent; pIC50 (BACE1; Table 3, read-out: IC50): ~6.60
Cc1cc(C2(c3ccnc(F)c3)N=C(N)N(C)C2=O)ccc1OC(F)F (stereo not drawn) [FAH-46] | ↑≈10% | ↑>10% | ↓<10% | – | ↓>20% | sAPPα/Aβ ([1]; ↓ (decrease)): ↓>40%; Cmax brain [2]: ~0.3 µM; Sol (solubility (Sol)): Good
Cc1cc(C2(c3ccc(OC(F)F)c(C)c3)N=C(N)N(C)C2=O)ccn1 (stereo not drawn) [FAH-47] | ↑>50% | ↑>10% | ↓>20% | – | ↓≈10% | sAPPα/Aβ ([1]; ↓ (decrease)): ↓>20%
COc1cc(C2(c3ccc(OC(F)F)c(C)c3)N=C(N)N(C)C2=O)ccn1 (stereo not drawn) [FAH-48] | ↑≈50% | ↑>10% | ↓>20% | – | ↓≈10% | sAPPα/Aβ ([1]; ↓ (decrease)): ↓>20%
COCc1cc(C2(c3ccc(OC(F)F)c(C)c3)N=C(N)N(C)C2=O)ccn1 (stereo not drawn) [FAH-53] | ↑≈50% | ↑>10% | ↓<10% | – | ↓<10% | sAPPα/Aβ ([1]; ↓ (decrease)): ↓≈20%
Cc1cc(C2(C3CCCCC3)N=C(N)N(C)C2=O)ccc1OC(F)F (stereo not drawn) [FAH-59] | – | – | – | – | – | Secondary (1st test) toxicity [1, 4]: Toxic
CNCc1cccc(C2(c3ccc(OC(F)F)c(C)c3)N=C(N)N(C)C2=O)c1 (stereo not drawn) [FAH-62] | ↑≈50% | ↑>10% | ↓>20% | – | ↓<10% | sAPPα/Aβ ([1]; ↓ (decrease)): ↓≈30%; Sol (solubility (Sol)): Good
Cc1cc(C2(c3cccc(C4CNC4)c3)N=C(N)N(C)C2=O)ccc1OC(F)CF (stereo not drawn) [FAH-64] | – | – | – | – | – | pIC50 (BACE1; [3]): 5.49
Cc1cc(C2(c3cccc(-c4cncc(F)c4)c3)N=C(N)N(C)C2=O)ccc1OC(F)F (stereo not drawn) [FAH-66] | – | – | – | – | – | pIC50 (BACE1; [3]): 6.92
Cc1cc(C2(C3CCN(C)CC3)N=C(N)N(C)C2=O)ccc1OC(F)CF (stereo not drawn) [FAH-67] | – | – | – | – | – | pIC50 (BACE1; [3]): 4.62
CCCC1CC(C2(C3=CC(C)=C(OC(F)F)C(C)C3)N=C(N)N(C)C2=O)CCN1C (stereo not drawn) [FAH-68] | – | – | – | – | – | pIC50 (BACE1; [3]): 4.79
